Patent publication US5977373A, “Thiadiazolyl and oxadiazolyl phenyl oxazolidinone antibacterial agents” (Pharmacia & Upjohn Company, priority 1998, dated 1999)
In brackets after ≈: the same amount, converted by molar mass.

What was measured:
[1] = system: S. pneumoniae UC ® 9912; assay: In vitro minimum inhibitory concentration (MIC) by agar dilution, gram-positive bacteria (Table 1); format: cell-based; details: Streptococcus pneumoniae, UC9912
Excerpt: (§1) The oxazolidinone antibacterial agents of this invention have useful activity against a variety of microorganisms. The in vitro activity of compounds of this invention can be assessed by standard testing procedures such as the determination of minimum inhibitory concentration (MIC) by agar dilution as described in "Methods for Dilution Antimicrobial Susceptibility Tests for Bacteria That Grow Aerobically" (MFT) published January 1983 by the National Committee for Clinical Laboratory Standards, 771 East Lancaster Avenue, Villanova, Pa. 19084, USA. The activity of selected compounds of this invention against Staphylococcus aureus and Streptococcus pneumoniae are shown in Table 1.

[2] = system: S. Aureus UC ® 9213; assay: as above; format: cell-based; details: Staphylococcus aureus, UC9213
Excerpt: as §1

SMILES: CC(=O)NC[C@H]1CN(c2ccc(-c3nnc(CCC(C)O)s3)c(F)c2)C(=O)O1 (stereo partly drawn) [Example 17, (5S)-N-[[3-[3-Fluoro-4-[5-(3-hydroxybutyl)-1,3,4-thiadiazol-2-yl]phenyl]-2-oxo-5-oxazolidinyl]methyl]acetamide]
- MIC [1]: 0.25 µg/mL (≈ 0.612 µM)
- MIC [2]: 2 µg/mL (≈ 4.9 µM)

SMILES: CC(=O)NC[C@H]1CN(c2ccc(-c3nnc(N)s3)c(F)c2)C(=O)O1 [Example 30, (S)-N-[[3-[4-(5-Amino-1,3,4-thiadiazol-2-yl)-3-fluorophenyl]-2-oxo-5-oxazolidinyl]methyl]acetamide]
- MIC [1]: 0.25 µg/mL (≈ 0.712 µM)
- MIC [2]: 4 µg/mL (≈ 11.4 µM)

SMILES: CC(=O)NC[C@H]1CN(c2ccc(-c3noc(C)n3)c(F)c2)C(=O)O1 [Example 35, (S)-N-[[3-[3-Fluoro-4-(5-methyl-1,2,4-oxadiazol-3-yl)phenyl]-2-oxo-5-oxazolidinyl]methyl]acetamide]
- MIC [1]: 4 µg/mL (≈ 12 µM)
- MIC [2]: 16 µg/mL (≈ 47.9 µM)

SMILES: CC(=O)NC[C@H]1CN(c2ccc(-c3nnc(S(C)(=O)=O)s3)c(F)c2)C(=O)O1 [Example 62, (S)-N-[[3-[3-Fluoro-4-[5-(methylsulfonyl)-1,3,4-thiadiazol-2-yl]phenyl]-2-oxo-5-oxazolidinyl]methyl]acetamide]
- MIC [1]: 0.5 µg/mL (≈ 1.21 µM)
- MIC [2]: 2 µg/mL (≈ 4.83 µM)

SMILES: C/C=C/c1nnc(-c2ccc(N3C[C@H](CNC(C)=O)OC3=O)cc2F)s1 [Example 43, (S)-N-[[3-[3-Fluoro-4-[5-(1-propenyl)-1,3,4-thiadiazol-2-yl]phenyl]-2-oxo-5-oxazolidinyl]methyl]acetamide]
- MIC [1]: 0.5 µg/mL (≈ 1.33 µM)
- MIC [2]: 2 µg/mL (≈ 5.31 µM)

SMILES: CC(=O)NCCc1nnc(-c2ccc(N3C[C@H](CNC(C)=O)OC3=O)cc2F)s1 [Example 45, (S)-N-[[3-[4-[5-[2-(Acetylamino)ethyl]-1,3,4-thiadiazol-2-yl]-3-fluorophenyl]-2-oxo-5-oxazolidinyl]methyl]acetamide]
- MIC [1]: 0.5 µg/mL (≈ 1.19 µM)
- MIC [2]: 16 µg/mL (≈ 38 µM)

SMILES: CC(=O)NCc1nnc(-c2ccc(N3C[C@H](CNC(C)=O)OC3=O)cc2F)s1 [Example 49, (S)-N-[[5-[4-[5-[(Acetylamino)methyl]-2-oxo-3-oxazolidinyl]-2-fluorophenyl]-1,3,4-thiadiazol-2-yl]methyl]acetamide]
- MIC [1]: 0.25 µg/mL (≈ 0.614 µM)
- MIC [2]: 16 µg/mL (≈ 39.3 µM)

SMILES: CC(=O)NC[C@H]1CN(c2ccc(-c3nnc(CNC(=O)COC(C)=O)s3)c(F)c2)C(=O)O1 [Example 66]
- MIC [1]: < 0.5 µg/mL
- MIC [2]: 16 µg/mL (≈ 34.4 µM)

SMILES: CC(=O)NC[C@H]1CN(c2ccc(-c3nnc(C[S+](C)[O-])s3)c(F)c2)C(=O)O1 (stereo partly drawn) [Example 22, (S)-N-[[3-[3-Fluoro-4-[5-[(methylsulfinyl)methyl]-1,3,4-thiadiazol-2-yl]phenyl]-2-oxo-5-oxazolidinyl]methyl]acetamide]
- MIC [1]: 0.25 µg/mL (≈ 0.606 µM)
- MIC [2]: 8 µg/mL (≈ 19.4 µM)

SMILES: CC(=O)NC[C@H]1CN(c2ccc(-c3noc(C(N)=O)n3)c(F)c2)C(=O)O1 [Example 37, (S)-3-[4-[5-[(Acetylamino)methyl]-2-oxo-3-oxazolidinyl]-2-fluorophenyl]-1,2,4-oxadiazole-5-carboxamide]
- MIC [1]: 1 µg/mL (≈ 2.75 µM)
- MIC [2]: > 16 µg/mL

SMILES: CC(=O)NC[C@H]1CN(c2ccc(-c3nnc(CCC(N)=O)s3)c(F)c2)C(=O)O1 [Example 19, (S)-5-[4-[5-[(Acetylamino)methyl]-2-oxo-3-oxazolidinyl]-2-fluorophenyl]-1,3,4-thiadiazole-2-propanamide]
- MIC [1]: < 0.125 µg/mL
- MIC [2]: 8 µg/mL (≈ 19.6 µM)

SMILES: CC(=O)NC[C@H]1CN(c2ccc(-c3nnc(C(C)=O)s3)c(F)c2)C(=O)O1 [Example 59, (S)-N-[[3-[4-(5-Acetyl-1,3,4-thiadiazol-2-yl)-3-fluorophenyl]-2-oxo-5-oxazolidinyl]methyl]acetamide]
- MIC [1]: 0.5 µg/mL (≈ 1.32 µM)
- MIC [2]: 2 µg/mL (≈ 5.29 µM)

SMILES: CCC(=O)NC[C@H]1CN(c2ccc(-c3nnc(CCOC)s3)c(F)c2)C(=O)O1 [Example 72, (S)-N-[[3-[3-Fluoro-4-[5-(2-methoxyethyl)-1,3,4-thiadiazol-2-yl]phenyl]-2-oxo-5-oxazolidinyl]methyl]propanamide]
- MIC [1]: 0.25 µg/mL (≈ 0.612 µM)
- MIC [2]: 4 µg/mL (≈ 9.79 µM)

SMILES: CC(=O)NC[C@H]1CN(c2ccc(-c3noc(C(F)(F)F)n3)c(F)c2)C(=O)O1 [Example 39, (S)-N-[[3-[3-Fluoro-4-[5-(trifluoromethyl)-1,2,4-oxadiazol-3-yl]phenyl]-2-oxo-5-oxazolidinyl]methyl]acetamide]
- MIC [1]: 8 µg/mL (≈ 20.6 µM)
- MIC [2]: 16 µg/mL (≈ 41.2 µM)

SMILES: CC(=O)NC[C@H]1CN(c2ccc(-c3ncon3)c(F)c2)C(=O)O1 [Example 36, (S)-N-[[3-[3-Fluoro-4-(1,2,4-oxadiazol-3-yl)phenyl]-2-oxo-5-oxazolidinyl]methyl]acetamide]
- MIC [1]: 1 µg/mL (≈ 3.12 µM)
- MIC [2]: 4 µg/mL (≈ 12.5 µM)

SMILES: CC(=O)NC[C@H]1CN(c2ccc(-c3nsc(C(N)=O)n3)c(F)c2)C(=O)O1 [Example 33, (S)-3-[4-[5-[(Acetylamino)methyl]-2-oxo-3-oxazolidinyl]-2-fluorophenyl]-1,2,4-thiadiazole-5-carboxamide]
- MIC [1]: 2 µg/mL (≈ 5.27 µM)
- MIC [2]: 16 µg/mL (≈ 42.2 µM)

SMILES: CCCc1nnc(-c2ccc(N3C[C@H](CNC(C)=O)OC3=O)cc2F)s1 [Example 5, (S)-N-[[3-[3-Fluoro-4-(5-propyl-1,3,4-thiadiazol-2-yl)phenyl]-2-oxo-5-oxazolidinyl]methyl]acetamide]
- MIC [1]: 0.25 µg/mL (≈ 0.661 µM)
- MIC [2]: 1 µg/mL (≈ 2.64 µM)

SMILES: CSCc1nnc(-c2ccc(N3C[C@H](CNC(C)=O)OC3=O)cc2F)s1 [Example 21, (S)-N-[[3-[3-Fluoro-4-[5-[(methylthio)methyl]-1,3,4-thiadiazol-2-yl]phenyl]-2-oxo-5-oxazolidinyl]methyl]acetamide]
- MIC [1]: 0.25 µg/mL (≈ 0.631 µM)
- MIC [2]: 1 µg/mL (≈ 2.52 µM)

SMILES: COCCc1nnc(-c2ccc(N3C[C@H](CNC(C)=O)OC3=O)cc2F)s1 [Example 73, (S)-N-[[3-[3-Fluoro-4-[5-(2-methoxyethyl)-1,3,4-thiadiazol-2-yl]phenyl]-2-oxo-5-oxazolidinyl]methyl]acetamide]
- MIC [1]: < 0.5 µg/mL
- MIC [2]: 2 µg/mL (≈ 5.07 µM)

SMILES: CC(=O)NC[C@H]1CN(c2ccc(-c3nnc(C(F)(F)F)s3)c(F)c2)C(=O)O1 [Example 15, (S)-N-[[3-[3-Fluoro-4-[5-(trifluoromethyl)-1,3,4-thiadiazol-2-yl]phenyl]-2-oxo-5-oxazolidinyl]methyl]acetamide]
- MIC [1]: 0.5 µg/mL (≈ 1.24 µM)
- MIC [2]: 2 µg/mL (≈ 4.95 µM)

SMILES: CC(=O)NCCCc1nnc(-c2ccc(N3C[C@H](CNC(C)=O)OC3=O)cc2F)s1 [Example 58, (S)-N-[3-[5-[4-[5-[(Acetylamino)methyl]-2-oxo-3-oxazolidinyl]-2-fluorophenyl]-1,3,4-thiadiazol-2-yl]propyl]acetamide]
- MIC [1]: 0.25 µg/mL (≈ 0.574 µM)
- MIC [2]: 8 µg/mL (≈ 18.4 µM)

SMILES: CC(=O)NC[C@H]1CN(c2ccc(-c3ncns3)c(F)c2)C(=O)O1 [Example 34, (S)-N-[[3-[3-Fluoro-4-(1,2,4-thiadiazol-5-yl)phenyl]-2-oxo-5-oxazolidinyl]methyl]acetamide]
- MIC [1]: 0.25 µg/mL (≈ 0.743 µM)
- MIC [2]: 1 µg/mL (≈ 2.97 µM)

SMILES: CC(=O)NC[C@H]1CN(c2ccc(-c3nnc(CCNS(C)(=O)=O)s3)c(F)c2)C(=O)O1 [Example 46, (S)-N-[[3-[3-Fluoro-4-[5-[2-[(methylsulfonyl)amino]ethyl]-1,3,4-thiadiazol-2-yl]phenyl]-2-oxo-5-oxazolidinyl]methyl]acetamide]
- MIC [1]: 0.5 µg/mL (≈ 1.09 µM)
- MIC [2]: 16 µg/mL (≈ 35 µM)

SMILES: CCOC(=O)Cc1nnc(-c2ccc(N3C[C@H](CNC(C)=O)OC3=O)cc2F)s1 [Example 25, (S)-Ethyl 5-[4-[5-[(acetylamino)methyl]-2-oxo-3-oxazolidinyl]-2-fluorophenyl]-1,3,4-thiadiazole-2-acetate]
- MIC [1]: 0.25 µg/mL (≈ 0.592 µM)
- MIC [2]: 2 µg/mL (≈ 4.73 µM)

SMILES: CSCCc1nnc(-c2ccc(N3C[C@H](CNC(C)=O)OC3=O)cc2F)s1 [Example 23, (S)-N-[[3-[3-Fluoro-4-[5-[2-(methylthio)ethyl]-1,3,4-thiadiazol-2-yl]phenyl]-2-oxo-5-oxazolidinyl]methyl]acetamide]
- MIC [1]: 0.25 µg/mL (≈ 0.609 µM)
- MIC [2]: 1 µg/mL (≈ 2.44 µM)

SMILES: CC(=O)NC[C@H]1CN(c2ccc(-c3nnc(CCCCl)s3)c(F)c2)C(=O)O1 [Example 60, (S)-N-[[3-[4-[5-(3-Chloropropyl)-1,3,4-thiadiazol-2-yl]-3-fluorophenyl]-2-oxo-5-oxazolidinyl]methyl]acetamide]
- MIC [1]: 0.5 µg/mL (≈ 1.21 µM)
- MIC [2]: 2 µg/mL (≈ 4.84 µM)

SMILES: CCOC(=O)c1nnc(-c2ccc(N3C[C@H](CNC(C)=O)OC3=O)cc2F)s1 [Example 27, (S)-Ethyl 5-[4-[5-[(acetylamino)methyl]-2-oxo-3-oxazolidinyl]-2-fluorophenyl]-1,3,4-thiadiazole-2-carboxylate]
- MIC [1]: < 0.125 µg/mL
- MIC [2]: 8 µg/mL (≈ 19.6 µM)

SMILES: CC(=O)NC[C@H]1CN(c2ccc(-c3nnc(CCCN)s3)c(F)c2)C(=O)O1 [Example 57, (S)-N-[[3-[4-[5-(3-Aminopropyl)-1,3,4-thiadiazol-2-yl]-3-fluorophenyl]-2-oxo-5-oxazolidinyl]methyl]acetamide]
- MIC [1]: 0.5 µg/mL (≈ 1.27 µM)
- MIC [2]: 16 µg/mL (≈ 40.7 µM)

SMILES: CC(=O)NC[C@H]1CN(c2ccc(-c3noc(C#N)n3)c(F)c2)C(=O)O1 [Example 38, (S)-N-[[3-[4-(5-Cyano-1,2,4-oxadiazol-3-yl)-3-fluorophenyl]-2-oxo-5-oxazolidinyl]methyl]acetamide]
- MIC [1]: 2 µg/mL (≈ 5.79 µM)
- MIC [2]: > 16 µg/mL

SMILES: CC(=O)NC[C@H]1CN(c2ccc(-c3nnc(NC(=O)COC(C)=O)s3)c(F)c2)C(=O)O1 [Example 68, (S)-N-[5-[4-[5-[(Acetylamino)methyl]-2-oxo-3-oxazolidinyl]-2-fluorophenyl]-1,3,4-thiadiazol-2-yl]-2-(acetyloxy)acetamide]
- MIC [1]: 2 µg/mL (≈ 4.43 µM)
- MIC [2]: 8 µg/mL (≈ 17.7 µM)

SMILES: COC(=O)CCc1nnc(-c2ccc(N3C[C@H](CNC(C)=O)OC3=O)cc2F)s1 [Example 18, (S)-Methyl 5-[4-[5-[(acetylamino)methyl]-2-oxo-3-oxazolidinyl]-2-fluorophenyl]-1,3,4-thiadiazole-2-propanoate]
- MIC [1]: 0.25 µg/mL (≈ 0.592 µM)
- MIC [2]: 2 µg/mL (≈ 4.73 µM)

SMILES: CC(=O)NC[C@H]1CN(c2ccc(-c3nnc(C(N)=O)s3)c(F)c2)C(=O)O1 [Example 2, (S)-5-[4-[5-[(Acetylamino)methyl]-2-oxo-3-oxazolidinyl]-2-fluorophenyl]-1,3,4-thiadiazole-2-carboxamide]
- MIC [1]: 0.25 µg/mL (≈ 0.659 µM)
- MIC [2]: 0.5 µg/mL (≈ 1.32 µM)
